Patent US20200038420A1, “AMINOSTEROL COMPOSITIONS AND METHODS OF USING THE SAME FOR TREATING DEPRESSION” (Enterin, Inc., priority 2018, published 2020)
Entries after “also recorded” stand apart in the source; their conditions may differ. Counter-ions that a name gives are not always drawn. Like-named read-outs stand apart in the source and are kept apart here.

Columns and labels:
[1] = cited from earlier work
[2] = test system: IPANs (intrinsic primary afferent neuron); conditions: perfusion through the lumen of isolated bowel segment; increased frequency of propulsive peristaltic contractions; cited from earlier work
C. elegans αS model = conditions: cited from earlier work; for Formation of αS aggregates: in vivo, C. elegans model of PD
[3] = test system: patients with PD and constipation; experiment: Adverse events, Phase 2 trial Stage 1 (single escalating oral doses); assay type: in vivo, human; conditions: Stage 1 (10 dosed), single escalating oral doses 25-200 mg
Text: (§1) Tolerability limits included diarrhea or vomiting.

mouse models of PD = conditions: cited from earlier work
[4] = test system: patients with PD and constipation; experiment: Circadian rhythm of wrist skin temperature; assay type: in vivo, human; conditions: 12 patients
Description: (6) I-Button Temperature Assessment. The I-Button is a small, rugged self-sufficient system that measures temperature and records the results in a protected memory section. The Thermochron I-Button DS1921H (Maxim Integrated, Dallas, Tex.) was used for skin temperature measurement. I-Buttons were programmed to sample every 10 mins., and attached to a double-sided cotton sport wrist band using Velcro, with the sensor face of the I-Button placed over the inside of the wrist, on the radial artery of the dominant hand. Subjects removed and replaced the data logger when necessary (i.e., to have a bath or shower). […] From the collected data, the mesor, amplitude, acrophase (time of peak temperature), Rayleight test (an index of interdaily stability), mean waveforms are calculated.);
(§2) Assessments were made at baseline and at the end of the fixed dose and washout periods. Circadian system status was evaluated by continuously monitoring wrist skin temperature (Thermochron iButton DS1921H; Maxim, Dallas) following published procedures (Sarabia et al. 2008).
Circadian rhythm of skin temperature was evaluable in 12 patients (i.e., those who had recordings that extended from baseline through washout). Circadian system functionality was evaluated by continuously monitoring wrist skin temperature using a temperature sensor (Thermochron iButton DS1921H; Maxim, Dallas, Tex.) (Sarabia et al. 2008). […]

[5] = test system: patients with PD and constipation; experiment: Bowel function / stool related indices, Stage 2; assay type: in vivo, human; conditions: Stage 2 (daily dosing), at 75 mg
Description: Following successful screening, all subjects underwent a 14-day run-in period where the degree of constipation was assessed through a validated daily log (Zinsmeister et al. 2013) establishing baseline CSBMs/week. Subjects with an average of <3 CSBMs/week proceeded to dosing.
(§3) In Stage 2, 34 patients were evaluated.
The primary efficacy outcome variable was whether or not a subject was a “success” or “failure”. This is an endpoint based on subject diary entries for the “fixed dose” period prior to the endpoint assessment defined as average complete stool frequency increase by 1 or more over baseline, or 3 or more complete spontaneous stools/week. The subject was deemed a “success” if s/he met one or more of the criteria listed above, otherwise the subject was deemed a “failure”. The primary analysis was based on all subjects with a baseline assessment and an assessment at the end of the “fixed-dose” period and was a comparison of the proportion of successes with 0.10 (the null hypothesis corresponding to no treatment effect).

[6] = Oral bioavailability in PD patients (oral PK compared with prior IV PK); assay type: in vivo, human; conditions: this study
Description: PK data were collected on the 10 patients enrolled in Stage 1 and 10 patients enrolled in Stage 2 to determine the extent of systemic absorption. In Stage 1, PK data were obtained at each visit, pre-medication, at 1, 2, 4, 8 and 24 hours (Table 10). In Stage 2, PK was measured on days 1 and 6 of the randomization period pre-medication, at 1, 2, 4 and 8 hours (Table 11).

αS = αS (Homo sapiens, UniProt P37840); conditions: in vitro; cited from earlier work
[7] = test system: patients with PD and constipation; experiment: Adverse events, Phase 2 trial Stage 2 (daily oral dosing); assay type: in vivo, human; conditions: Stage 2 (34 dosed), daily oral doses 75-250 mg
Description: as §3

[8] = test system: patients with PD and constipation; experiment: CNS / neurological symptoms, Stage 2 (UPDRS, MMSE, PDHQ, BDI-II); assay type: in vivo, human
Text: Exploratory end-points, in addition to constipation, included for example, (i) depression assessed using the Beck Depression Inventory (BDI-II) (Steer et al. 2000) and Unified Parkinson's Disease Rating Scale (UPDRS); (ii) cognition assessed using the Mini Mental State Examination (MMSE) (Palsteia et al. 2018), Unified Parkinson's Disease Rating Scale (UPDRS), and Trail Making Test (TMT); (iii) sleep and REM-behavior disorder (RBD) using a daily sleep diary, I-Button Temperature Assessment, a REM sleep behavior disorder (RBD) questionnaire (RBDQ) (Stiasny-Kolster et al. 2007), and the UPDRS; (iv) hallucinations assessed using the PD hallucinations questionnaire (PDHQ) (Papapetropoulos et al. 2008), the UPDRS, and direct questioning; (v) fatigue using the Parkinson's Disease Fatigue Scale (PFS-16) and the UPDRS; (vi) motor functions using the UPDRS; and (vii) non-motor functions using the UPDRS.
as §2
An exploratory analysis was done with respect to the sleep data, the body temperature data, mood, fatigue, hallucinations, cognition and other motor and non-motor symptoms of PD. […]

[9] = test system: patients with PD and constipation; experiment: Prokinetic response (CSBM within 24 hours of dosing), Stage 1; assay type: in vivo, human; conditions: Stage 1 (single dose)
Text: as §1

[10] = mice; into the duodenum through the biliary tract; cited from earlier work

In the case of CC(C)[C@@H](CC[C@@H](C)[C@H]1CC[C@H]2[C@@H]3[C@H](O)C[C@H]4C[C@@H](NCCCNCCCCN)CC[C@]4(C)[C@H]3CC[C@]12C)OS(=O)(=O)O [Squalamine dilactate salt], the “Well tolerated dose, single and repeat intravenous administration” value ([1]; intravenous, alone or in combination with other agents, Phase 1 and Phase 2 trials) is listed as “at least 300 mg/m^2”.
For CC(C)[C@@H](CC[C@@H](C)[C@H]1CC[C@H]2[C@@H]3[C@H](O)C[C@H]4C[C@@H](NCCCNCCCCN)CC[C@]4(C)[C@H]3CC[C@]12C)OS(=O)(=O)O (single isomer, unassigned) [squalamine (ENT-01), squalamine], the “Effect on enteric sensory neurons” value [2] is given as “excitation of IPANs”, the “Gastrointestinal motility after intravenous administration” value ([1]; intravenous, prior studies) is given as “not associated with increased gastrointestinal motility” and the “Systemic blood levels, intravenous versus orally administered squalamine” value ([1]; prior studies) is given as “one thousand-fold greater”. For the same molecule, the “Muscle paralysis / motor dysfunction” value (C. elegans αS model; C. elegans αS model) was “reverses motor dysfunction; also recorded: complete reversal of muscle paralysis”, the “Formation of αS aggregates” value (C. elegans αS model; listed as ENT-01) was “inhibit the formation of aggregates of αS” and the “Formation of αS aggregates” value (C. elegans αS model; listed as squalamine) was “inhibits the formation of αS aggregates”. For the same molecule, the “Abdominal pain, Mild” value [3] was 2(20) n, %, the “Abdominal pain, Moderate” value [3] was 3(30) n, % and the “Diarrhea, Mild” value [3] was 1(10) n, %. The “Diarrhea, Moderate” value [3] was 3(30) n, %, the “Diarrhea, Severe” value [3] was 0 n, % and the “Difficulty falling asleep, Mild” value [3] was 0 n, %. The “Difficulty falling asleep, Moderate” value [3] was 0 n, %, the “Dizziness, Mild” value [3] was 0 n, % and the “Dizziness, Moderate” value [3] was 0 n, %. The “Eye infection, Mild” value [3] was 0 n, %, the “Eye infection, Moderate” value [3] was 0 n, % and the “Flatulence, Mild” value [3] was 2(20) n, %. For the same molecule, the “Flatulence, Moderate” value [3] was 0 n, %, the “Headache, Mild” value [3] was 1(10) n, % and the “Headache, Moderate” value [3] was 0 n, %. The “Increased urinary frequency, Mild” value [3] was 0 n, %, the “Increased urinary frequency, Moderate” value [3] was 0 n, % and the “Nausea, Mild” value [3] was 4(40) n, %. The “Nausea, Moderate” value [3] was 0 n, %, the “Skin lesions-rash, Mild” value [3] was 0 n, % and the “Skin lesions-rash, Moderate” value [3] was 0 n, %. For the same molecule, the “Urinary retention, Mild” value [3] was 0 n, %, the “Urinary retention, Moderate” value [3] was 0 n, % and the “Urinary tract infection, Mild” value [3] was 0 n, %. The “Urinary tract infection, Moderate” value [3] was 0 n, %, the “Vomiting, Mild” value [3] was 1(10) n, % and the “Vomiting, Moderate” value [3] was 0 n, %. For the same molecule, the “Worsening acid reflux, Mild” value [3] was 0 n, %, the “Worsening acid reflux, Moderate” value [3] was 0 n, % and the “Worsening hemorrhoid, Mild” value [3] was 0 n, %. The “Worsening hemorrhoid, Moderate” value [3] was 0 n, %, the “Blood in urine, Mild” value ([3]; unrelated to ENT-01) was 1(10) n, % and the “Blood in urine, Moderate” value ([3]; unrelated to ENT-01) was 0 n, %. For the same molecule, the “Loss of appetite, Mild” value ([3]; unrelated to ENT-01) was 1(10) n, %, the “Loss of appetite, Moderate” value ([3]; unrelated to ENT-01) was 0 n, % and the “Lower GI bleed, Severe” value ([3]; unrelated to ENT-01) was 0 n, %. The Gastro-intestinal motility (mouse models of PD; oral, mice with constipation due to overexpression of human αS) was “stimulates gastro-intestinal motility”, the “Gastrointestinal motility / dysmotility” value (mouse models of PD; several mouse models of PD) was “restores gastrointestinal motility; also recorded: reverse gastrointestinal dysmotility” and the “Circadian rhythm parameters (IS, RA, CFI, IV)” value ([4]; fixed dose versus baseline) was “improved all markers of healthy circadian function”. For the same molecule, the “Circadian rhythm parameters (IS, CFI)” value ([4]; wash-out period) was “improvement persisted for several of these circadian parameters”, the Prokinetic response rate [5] was 26% and the “Systemic absorption following oral administration” value [6] was “not significantly absorbed into the systemic circulation”. For the same molecule, the “Systemic absorption following oral administration” value ([6]; listed as aminosterol) was “negligible”, the “Formation of αS aggregates” value (αS) was “inhibits the formation of αS aggregates” and the “Diarrhea, Mild” value [7] was 12(35)^ n, %. For the same molecule, the “Difficulty falling asleep, Mild” value [7] was 1(3)^ n, %, the “Difficulty falling asleep, Moderate” value [7] was 0 n, % and the “Eye infection, Mild” value [7] was 1(3)^ n, %. For the same molecule, the “Eye infection, Moderate” value [7] was 0 n, %, the “Flatulence, Mild” value [7] was 1(3)^ n, % and the “Flatulence, Moderate” value [7] was 0 n, %. For the same molecule, the “Headache, Moderate” value [7] was 0 n, %, the “Increased urinary frequency, Moderate” value [7] was 0 n, % and the “Nausea, Mild” value [7] was 18(52)^ n, %. For the same molecule, the “Skin lesions-rash, Moderate” value [7] was 0 n, %, the “Urinary retention, Mild” value [7] was 1(3)^ n, % and the “Urinary retention, Moderate” value [7] was 0 n, %. For the same molecule, the “Urinary tract infection, Mild” value [7] was 1(3)^ n, %, the “Vomiting, Moderate” value [7] was 0 n, % and the “Worsening acid reflux, Moderate” value [7] was 0 n, %. For the same molecule, the “Worsening hemorrhoid, Mild” value [7] was 1(3)^ n, %, the “Worsening hemorrhoid, Moderate” value [7] was 0 n, % and the “Blood in urine, Mild” value ([7]; unrelated to ENT-01) was 0 n, %. The “Blood in urine, Moderate” value ([7]; unrelated to ENT-01) was 0 n, %, the “Loss of appetite, Mild” value ([7]; unrelated to ENT-01) was 0 n, % and the “Loss of appetite, Moderate” value ([7]; unrelated to ENT-01) was 0 n, %. The “Patients in whom hallucinations and delusions improved or disappeared during treatment” value ([8]; Stage 2, 5 patients with hallucinations and 1 with delusions at baseline) was 5 of 6, the “Improvement of UPDRS Part 1 score” value ([8]; baseline 11.6 to wash-out 9.5) was roughly 20% and the “Cumulative prokinetic response rate” value ([9]; at 25 mg) was 25%. The “Cumulative prokinetic response rate” value ([9]; maximum, at 200 mg) was 80% and the “Clearance and excretion following systemic administration” value [10] was “cleared by the liver and excreted as the intact molecule”.
